In ChEMBL document CHEMBL4382202, “1-(2-Hydroxybenzoyl)-thiosemicarbazides are promising antimicrobial agents targeting d-alanine-d-alanine ligase in bacterio” (Eur J Med Chem, 2018):
Values after ≈ are worked out from the molar mass of the structure shown.

Assays:
[1] = molecular target: T1, D-alanine--D-alanine ligase (Enterococcus faecalis (strain ATCC 700802 / V583), UniProt Q47758); assay: Inhibition of Enterococcus faecalis Ddl
T1 sequence (Q47758 whole entry): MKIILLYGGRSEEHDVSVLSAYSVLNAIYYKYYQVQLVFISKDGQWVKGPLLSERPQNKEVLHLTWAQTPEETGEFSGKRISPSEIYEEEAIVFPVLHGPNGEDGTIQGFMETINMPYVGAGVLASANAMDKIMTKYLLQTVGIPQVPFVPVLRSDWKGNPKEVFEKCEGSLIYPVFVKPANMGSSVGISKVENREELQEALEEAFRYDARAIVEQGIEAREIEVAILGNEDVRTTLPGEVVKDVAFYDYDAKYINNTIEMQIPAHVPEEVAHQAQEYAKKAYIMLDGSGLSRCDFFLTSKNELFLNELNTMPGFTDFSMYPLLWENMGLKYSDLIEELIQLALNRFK

Staphylococcus aureus [2] = assay: Antibacterial activity against community-acquired methicillin and erythromycin resistant Staphylococcus aureus SA 325 after 18 to 24 hrs by microdilution assay; format: functional
Enterococcus faecalis [3] = assay: Antibacterial activity against vancomycin-resistant Enterococcus faecalis BM 4390 after 18 to 24 hrs by microdilution assay; format: functional
[4] = molecular target: T1, D-alanine--D-alanine ligase; assay: Inhibition of Enterococcus faecalis JH2-2 C-terminal 6His-tagged DdlB expressed in Escherichia coli LMG194 preincubated for 30 mins followed by substrate addition and measured after 20 mins by Biomol Green reagent assay
Enterococcus faecalis [5] = assay: Antibacterial activity against Enterococcus faecalis ATCC 29212 after 18 to 24 hrs by microdilution assay; format: functional
Staphylococcus aureus [6] = assay: Antibacterial activity against Staphylococcus aureus ATCC 25923 after 18 to 24 hrs by microdilution assay; format: functional
Staphylococcus aureus [7] = assay: Antibacterial activity against methicillin and linezolid resistant Staphylococcus aureus NRS 119 clinical isolate after 18 to 24 hrs by microdilution assay; format: functional
Staphylococcus aureus [8] = assay: Antibacterial activity against hospital-acquired methicillin and vacomycin resistant Staphylococcus aureus VRS-1 after 18 to 24 hrs by microdilution assay; format: functional
Enterococcus faecalis [9] = assay: Antibacterial activity against vancomycin-resistant Enterococcus faecalis BM 4575 clinical isolate after 18 to 24 hrs by microdilution assay; format: functional
Enterococcus faecalis [10] = assay: Antibacterial activity against vancomycin-resistant Enterococcus faecalis JH2-2::C1 after 18 to 24 hrs by microdilution assay; format: functional
Staphylococcus aureus [11] = assay: Antibacterial activity against hospital-acquired methicillin/ciprofloxacin/moxifloxacin resistant Staphylococcus aureus SA 481 after 18 to 24 hrs by microdilution assay; format: functional
Staphylococcus aureus [12] = assay: Antibacterial activity against methicillin and vancomycin intermediate resistant Staphylococcus aureus MU50 after 18 to 24 hrs by microdilution assay; format: functional
[13] = Inhibition of full-length 6His-tagged Mycobacterium tuberculosis H37Rv Ddl expressed in Escherichia coli BL21(DE3)pLysS by UV-Vis spectrophotometric analysis
[14] = system: Mycobacterium tuberculosis; assay: Antitubercular activity against Mycobacterium tuberculosis H37Rv; format: functional
[15] = Inhibition of 6His-tagged Staphylococcus aureus Ddl expressed in Escherichia coli M15 (pREP4) using ATP or d-alanine as substrate after 20 mins
[16] = molecular target: Secretory phospholipase A2; assay: Inhibition of human sPLA2; format: protein assay
THP-1 = assay: Cytotoxicity against human THP1 cells assessed as decrease in cell viability at 1 to 5 times MIC after 24 hrs by trypan blue exclusion assay relative to control; format: cell-based; details: thp-1, 24 h
Staphylococcus aureus [17] = assay: Bactericidal activity against Staphylococcus aureus ATCC 25923 assessed as bacterial cell killing level at 0.1 mM after 24 hrs by time kill assay; format: functional
[18] = molecular target: T2, MAO-A (amine oxidase [flavin-containing] A) (Homo sapiens, UniProt P21397); assay: Inhibition of human MAOA at 10 uM using kynuramine as substrate after 20 mins by spectrophotometric analysis relative to control; details: probe kynuramine
T2 sequence (P21397 whole entry): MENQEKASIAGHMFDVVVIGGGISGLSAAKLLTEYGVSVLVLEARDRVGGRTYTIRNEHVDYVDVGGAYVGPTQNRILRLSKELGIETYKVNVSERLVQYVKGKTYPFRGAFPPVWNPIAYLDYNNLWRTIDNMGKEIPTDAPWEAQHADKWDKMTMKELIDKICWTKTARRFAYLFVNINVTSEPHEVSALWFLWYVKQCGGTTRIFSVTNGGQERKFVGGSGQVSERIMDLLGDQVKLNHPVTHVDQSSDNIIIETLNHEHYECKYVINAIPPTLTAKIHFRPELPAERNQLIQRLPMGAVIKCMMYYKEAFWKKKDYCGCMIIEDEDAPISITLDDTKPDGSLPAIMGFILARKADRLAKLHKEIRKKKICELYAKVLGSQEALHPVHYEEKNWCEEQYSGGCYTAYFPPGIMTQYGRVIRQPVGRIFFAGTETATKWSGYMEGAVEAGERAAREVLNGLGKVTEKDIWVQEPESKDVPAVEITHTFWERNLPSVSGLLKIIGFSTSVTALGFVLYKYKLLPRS

hERG (KCNH2) = hERG (KCNH2) (Homo sapiens, UniProt Q12809); assay: Displacement of [3H]-Dofetilide from recombinant human ERG at 10 uM after 60 mins by scintillation counting analysis relative to control; details: probe [3H]-dofetilide
[19] = molecular target: Voltage-gated inwardly rectifying potassium channel KCNH2 (Homo sapiens, UniProt Q12809); assay: Displacement of [3H]-Dofetilide from recombinant human ERG after 60 mins by scintillation counting analysis
[20] = Inhibition of Bacillus cereus beta-lactamase using nitrocefin as substrate preincubated for 15 mins followed by substrate addition and measured after 60 mins by spectrophotometric analysis

Chain of Voltage-gated inwardly rectifying potassium channel KCNH2 (Q12809 whole entry): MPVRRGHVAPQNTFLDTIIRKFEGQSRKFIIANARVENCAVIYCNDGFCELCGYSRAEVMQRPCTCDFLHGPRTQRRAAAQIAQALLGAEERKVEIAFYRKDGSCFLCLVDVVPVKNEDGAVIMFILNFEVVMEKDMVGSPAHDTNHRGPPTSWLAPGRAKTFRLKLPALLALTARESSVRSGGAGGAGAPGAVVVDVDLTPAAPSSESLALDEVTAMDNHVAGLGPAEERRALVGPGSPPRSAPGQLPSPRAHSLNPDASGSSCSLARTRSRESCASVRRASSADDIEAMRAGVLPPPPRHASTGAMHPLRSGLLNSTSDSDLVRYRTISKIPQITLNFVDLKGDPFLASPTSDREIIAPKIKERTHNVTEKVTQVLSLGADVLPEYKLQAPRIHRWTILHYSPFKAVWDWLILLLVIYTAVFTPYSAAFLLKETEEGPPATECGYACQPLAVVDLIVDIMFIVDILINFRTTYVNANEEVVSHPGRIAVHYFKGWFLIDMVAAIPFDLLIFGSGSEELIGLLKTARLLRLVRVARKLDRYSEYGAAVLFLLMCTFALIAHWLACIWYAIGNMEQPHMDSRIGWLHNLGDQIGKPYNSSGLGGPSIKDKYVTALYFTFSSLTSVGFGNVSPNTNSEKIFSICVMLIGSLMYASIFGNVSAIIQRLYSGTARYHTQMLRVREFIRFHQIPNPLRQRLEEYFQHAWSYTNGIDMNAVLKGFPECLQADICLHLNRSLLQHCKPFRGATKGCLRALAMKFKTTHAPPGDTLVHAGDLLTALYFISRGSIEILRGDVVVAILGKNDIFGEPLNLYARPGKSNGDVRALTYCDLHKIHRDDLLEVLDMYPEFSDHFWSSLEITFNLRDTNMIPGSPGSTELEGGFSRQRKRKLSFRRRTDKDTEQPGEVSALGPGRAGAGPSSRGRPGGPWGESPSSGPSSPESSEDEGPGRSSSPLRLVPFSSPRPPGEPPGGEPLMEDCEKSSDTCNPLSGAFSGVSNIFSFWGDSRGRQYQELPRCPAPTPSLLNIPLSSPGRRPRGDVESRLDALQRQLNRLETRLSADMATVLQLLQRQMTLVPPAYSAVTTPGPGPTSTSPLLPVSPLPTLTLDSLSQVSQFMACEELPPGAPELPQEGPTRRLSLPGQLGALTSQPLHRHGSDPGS
Chain of hERG (KCNH2) (Q12809 whole entry): as above

SMILES	MIC (Staphylococcus aureus [2]) [µM]	MIC (Enterococcus faecalis [3]) [µM]	IC50 [4] [nM]	MIC (Enterococcus faecalis [5]) [µM]	MIC (Staphylococcus aureus [6]) [µM]	MIC (Staphylococcus aureus [7]) [µM]	MIC (Staphylococcus aureus [8]) [µM]	MIC (Enterococcus faecalis [9]) [µM]	MIC (Enterococcus faecalis [10]) [µM]	MIC (Staphylococcus aureus [11]) [µM]	MIC (Staphylococcus aureus [12]) [µM]	other results
CCOC(=O)c1cc(Br)c2nc(-c3cccc(CN)c3)oc2c1												IC50 [1]: 432 µM
O=C(NNC(=S)Nc1ccccc1Cl)c1ccccc1O	100 (≈ 32.2 µg/mL)	> 100	790	400 (≈ 129 µg/mL)	> 100	100 (≈ 32.2 µg/mL)	100 (≈ 32.2 µg/mL)	> 100	> 100	100 (≈ 32.2 µg/mL)	> 100	
COc1ccccc1NC(=S)NNC(=O)c1ccccc1O	> 100	> 100	550	> 400	> 100	> 100	> 100	> 100	> 100	> 100	> 100	
O=C(NNC(=S)Nc1ccccc1)c1ccccc1O	> 100	> 100	800	> 400	> 100	> 100	> 100	> 100	> 100	> 100	> 100	
N[C@@H]1CONC1=O [CYCLOSERINE]				1250 (≈ 128 µg/mL)	313 (≈ 32 µg/mL)							Ki [13]: 25 µM; MIC [14]: 50 µg/mL (≈ 490 µM)
O=C(NNC(=S)Nc1ccc(OCc2ccccc2)cc1)c1ccccc1O	> 100	> 100	990	> 400	100 (≈ 39.3 µg/mL)	> 100	> 100	> 100	> 100	> 100	> 100	
O=C(NNC(=S)Nc1cccc(F)c1)c1ccccc1O	> 100	> 100	100	200 (≈ 61.1 µg/mL)	> 100	> 100	> 100	> 100	> 100	> 100	> 100	
O=C(NNC(=S)Nc1ccccc1F)c1ccccc1O	> 100	> 100	970	200 (≈ 61.1 µg/mL)	> 100	> 100	> 100	> 100	> 100	> 100	> 100	
O=C(NNC(=S)Nc1ccc(Cl)c(Cl)c1)c1cc2ccccc2cc1O	> 100	> 100	560	> 400	> 100	> 100	> 100	> 100	> 100	> 100	> 100	
COc1ccc(NC(=S)NNC(=O)c2ccccc2O)cc1	> 100	> 100	710	> 400	> 100	> 100	> 100	> 100	> 100	> 100	> 100	
Nc1ccc(C(=O)NNC(=S)Nc2ccc(Cl)c(Cl)c2)c(O)c1	> 100	> 100	990	> 400	> 100	> 100	> 100	> 100	> 100	> 100	> 100	
CC(C)(CCl)C(=O)Nc1ccc(C(F)(F)F)cc1												Ki [15]: 4 µM
O=C(NNC(=S)Nc1ccc(Cl)cc1)c1ccccc1O	> 100	> 100	830	> 400	> 100	> 100	> 100	> 100	> 100	> 100	> 100	
CC(=O)c1ccc(NC(=S)NNC(=O)c2ccccc2O)cc1	> 100	> 100	370	50 (≈ 16.5 µg/mL)	25 (≈ 8.23 µg/mL)	> 100	> 100	> 100	> 100	> 100	> 100	
O=C(NNC(=S)Nc1ccc(Cl)c(Cl)c1)c1ccccc1O	50 (≈ 17.8 µg/mL)	50 (≈ 17.8 µg/mL)	1540	50 (≈ 17.8 µg/mL)	100 (≈ 35.6 µg/mL)	50 (≈ 17.8 µg/mL)	50 (≈ 17.8 µg/mL)	50 (≈ 17.8 µg/mL)	100 (≈ 35.6 µg/mL)	100 (≈ 35.6 µg/mL)	100 (≈ 35.6 µg/mL)	IC50 [16]: 20 µM; Activity (THP-1): 12 to 25%; Activity (Staphylococcus aureus [17]): 99%; inhibition at 20 min, 10 µM [18]: ≤ 30%; inhibition at 1 h, 10 µM (hERG (KCNH2)): ≤ 30%; IC50 [19]: 80 nM; IC50 [20]: 11 nM
O=C(NNC(=S)Nc1cccc(Cl)c1)c1ccccc1O	100 (≈ 32.2 µg/mL)	> 100	630	400 (≈ 129 µg/mL)	100 (≈ 32.2 µg/mL)	> 100	> 100	> 100	> 100	> 100	> 100	
